Activity calls are given as the source filed them. The calls are words filed in the database; no cut-off is given here. Residues, ends and D or L forms follow the SMILES beside them. *: point of attachment. X2 = C[C@H](N*)C(=O)N(C(=O)c1cn(CCOCCOCCOc2nc(N)c3nc(O)n(Cc4ccccc4)c3n2)nn1)[C@@H](CCCCN)C(N)=O; X1 = Nc1nc(OCCOCCOCCn2cc(C(=O)*)nn2)nc2c1nc(O)n2Cc1ccccc1
Experiments:
Assay type in all cases: functional, cell-based
Settings in all cases: Homo sapiens
[1] = system: Dendritic cell; assay: Induction of antigen presentation in dendritic cells
[2] = system: Dendritic cell; assay: Inhibition of antigen presentation in dendritic cells
[3] = system: Dendritic cell; assay: Induction of IL-12p40 in dendritic cells

Row | Compound | Activity [1] | Activity [2] | Activity [3]
1 | CC[C@H](C)[C@H](NC(=O)[C@H](CO)NC(=O)[C@H](CCC(=O)O)NC(=O)[C@H](CC(C)C)NC(=O)[C@H](CCC(N)=O)NC(=O)[C@H](CCC(=O)O)NC(=O)[C@H](CC(C)C)NC(=O)CNC(=O)[C@H](CO)NC(=O)[C@@H](NC(=O)[C@H](CCC(=O)O)NC(=O)[C@@H](N)CC(=O)O)C(C)C)C(=O)N[C@H](C(=O)N[C@@H](CC(N)=O)C(=O)N[C@@H](Cc1ccccc1)C(=O)N[C@@H](CCC(=O)O)C(=O)N[C@@H](CCCCN)C(=O)N[C@@H](CC(C)C)C(=O)N[C@@H](C)C(=O)N[C@@H](C)C(=O)N[C@@H](C)C(=O)N[C@@H](C)C(=O)N[C@@H](C)C(=O)N(C(=O)c1cn(CCOCCOCCOc2nc(N)c3nc(O)n(Cc4ccccc4)c3n2)nn1)[C@@H](CCCCN)C(N)=O)[C@@H](C)CC (H-DEVSGLEQLESIINFEKLAAAA-X2) | Active | Active | –
2 | [N-]=[N+]=NCCOCCOCCOc1nc(N)c2[nH]c(=O)n(Cc3ccccc3)c2n1 | – | – | Active
3 | COCCOc1nc(N)c2[nH]c(=O)n(Cc3ccccc3)c2n1 | – | – | Active
4 | CC[C@H](C)[C@H](NC(=O)[C@H](CO)NC(=O)[C@H](CCC(=O)O)NC(=O)[C@H](CC(C)C)NC(=O)[C@H](CCC(N)=O)NC(=O)[C@H](CCC(=O)O)NC(=O)[C@H](CC(C)C)NC(=O)CNC(=O)[C@H](CO)NC(=O)[C@@H](NC(=O)[C@H](CCC(=O)O)NC(=O)[C@H](CC(=O)O)NC(=O)c1cn(CCOCCOCCOc2nc(N)c3nc(O)n(Cc4ccccc4)c3n2)nn1)C(C)C)C(=O)N[C@H](C(=O)N[C@@H](CC(N)=O)C(=O)N[C@@H](Cc1ccccc1)C(=O)N[C@@H](CCC(=O)O)C(=O)N[C@@H](CCCCN)C(=O)N[C@@H](CC(C)C)C(=O)O)[C@@H](C)CC (X1-DEVSGLEQLESIINFEKL-OH) | Active | Active | –
5 | CC[C@H](C)[C@H](NC(=O)[C@H](CO)NC(=O)[C@H](CCC(=O)O)NC(=O)[C@H](CC(C)C)NC(=O)[C@H](CCC(N)=O)NC(=O)[C@H](CCC(=O)O)NC(=O)[C@H](CC(C)C)NC(=O)CNC(=O)[C@H](CO)NC(=O)[C@@H](NC(=O)[C@H](CCC(=O)O)NC(=O)[C@H](CC(=O)O)NC(=O)c1cn(CCOCCOCCOc2nc(N)c3nc(O)n(Cc4ccccc4)c3n2)nn1)C(C)C)C(=O)N[C@H](C(=O)N[C@@H](CC(N)=O)C(=O)N[C@@H](Cc1ccccc1)C(=O)N[C@@H](CCC(=O)O)C(=O)N[C@@H](CCCCN)C(=O)N[C@@H](CC(C)C)C(=O)N[C@@H](C)C(=O)N[C@@H](C)C(=O)N[C@@H](C)C(=O)N[C@@H](C)C(=O)N[C@@H](C)C(=O)N[C@@H](CCCCN)C(N)=O)[C@@H](C)CC (X1-DEVSGLEQLESIINFEKLAAAAAK-NH2) | Active | Active | –

From ChEMBL document CHEMBL1147819, “Synthesis of 2-alkoxy-8-hydroxyadenylpeptides: towards synthetic epitope-based vaccines” (Bioorg Med Chem Lett, 2006)
